{"source": "patent US20230017920A1", "about": "“SHELF-STABLE HYPOCHLOROUS ACID” (priority 2019, published 2023)", "origin": "cited, not measured here", "test_system": "individual bacterial cells", "conditions": "various studies, H Park et al., Int J Food Microbiol 91 (2004) 13-18"}
{"smiles": "OCl", "note": "[HOCl, hypochlorous acid]", "values": [{"measurement": "time to kill individual bacterial cells", "result": "within seconds"}]}
